Experimental data from patent US9901584B2, “Methods of cosmetically treating skin conditions with a cosmetic personal cleansing composition” (The Procter & Gamble Company, priority 2015, dated 2018).

Test system: Unhealthy Skin Signature
Conditions: normal human keratinocytes, various doses of zinc pyrithione, 6-24 hours

zinc pyrithione
Linkage to Unhealthy Skin Signature gene expression pattern: negative linkage
